Measurements published in patent US20250281460A1, “PEGYLATED BILIRUBIN FOR THE TREATMENT OF […], OBESITY, FATTY LIVER DISEASE, CARDIOVASCULAR DISEASES AND TYPE II DIABETES” (The University of Toledo, priority 2019, published 2025).
“Also recorded” adds a separate entry of the source.

What was measured:
[1] = test system: BAT cells; experiment: SeaHorse analysis in murine BAT cell line (wild-type); assay type: cell-based
[2] = test system: BAT PPARα CRISPR KO cells; experiment: Seahorse analysis in BAT PPARα CRISPR KO cells; assay type: cell-based, mouse; conditions: both KO clones, 24 hours
From the text: To further delineate the actions of bilirubin on BAT, CRISPR technology was developed to knockout (KO) PPARα and establish two null clone lines. […]. The function of the ligands was lost in both clones for the BAT PPARα CRISPR KO cells.
CRISPR-Technology was employed in BAT as previously described to excise part of Exon 3 and Exon 4 of the PPARα gene to create a PPARα Knockout BAT cell line. Two sgRNAs with high efficacy and low off-target scores were identified on Exon 3 and 4 of the mouse PPARα gene using Benchling online software. The two Cas9 targets were separated by 9,465 bases. All of the off-targets to our PPARα sgRNA had 4 mismatches, of which at least 1-2 were within the seed region (up to 12 bases proximal to the protospacer adjacent motif (PAM) site) which reduces the likelihood of Cas9 off-target effects. The multiplex sgRNAs were generated using the PrecisionX Multiplex gRNA Cloning Kit according to manufacturer instructions. […] After 36 h of transfection, cells with the top 10% level of fluorescence were single-sorted into 96-well plates by fluorescent activated cell sorting. […]
Cellular respiration was quantified using the Seahorse Extracellular Flux Analyzer XF-96 (Agilent Technologies, Cedar Creek, TX). […] The oxygen consumption rate (OCR) and extracellular acidification rate (ECAR) were used to quantify the cellular energy phenotype of the cells. […]

C=CC1=C(C)/C(=C/C2=NC(=C\c3[nH]c(/C=C4\NC(=O)C(C)=C4C=C)c(C)c3CCC(=O)O)/C(CCC(=O)O)=C2C)NC1=O [biliverdin]
mitochondrial function ([1]; BAT cells): increasing
proton leak ([1]; BAT cells): stimulated
ATP production ([1]; WT BAT cells, 24 hours): increased; also recorded: stimulated
basal respiration (OCR) ([1]; WT BAT cells, 24 hours): increased
maximum respiration (OCR) ([1]; WT BAT cells, 24 hours): increased; also recorded: significantly higher
function of the ligands on mitochondrial function (OCR) [2]: lost
